The values below are quoted from earlier work in patent US10842882B2, “Amatoxin-antibody conjugates” ([…] GMBH, priority 2015, dated 2020).

The data set deals with RNA-polymerase II (Homo sapiens, UniProt P24928). The note with it: amanitin/RNA-polymerase II complex, background statement.

What is called Kd is the equilibrium constant for the complex coming apart. On to amanitin, for which the Kd was 3 nM.
